Measured values published in patent publication US20240269304A1, “BCL-XL INHIBITOR ANTIBODY-DRUG CONJUGATES AND METHODS OF USE THEREOF” (Novartis AG, priority 2020, published 2024).
Like-named read-outs stand apart in the source and are kept apart here.

Assays:
ALL-SIL cells = assay: CellTiterGlo (CTG) cell viability, 72 h, ALL-SIL (Example 8); type: cell-based
Protocol: ALL-SIL cells were cultivated in RPMI supplemented with 20% heat inactivated fetal bovine serum, penicillin (100 IU/ml), streptomycin (100 μg/ml) and L-glutamine (2 mM). Cell lines were cultured at 37° C. in a humidified atmosphere containing 5% CO2. Cells were seeded in 96 well clear bottom plates (96 well clear-bottom, white, Corning reference 3903) and exposed to the payloads or ADCs for 72 h (serially diluted; 9 concentrations each, triplicates). Effects of payloads or ADCs on cell viability were assessed after 3 days of incubation at 37° C./5% CO2 by quantification of cellular ATP levels using CellTiterGlo at 75 μL reagent/well. All the conditions were tested in triplicates. Luminescence was quantified on a multipurpose plate reader. IC50s were calculated using standard four-parametric curve fitting. […] Each experiment was performed at least twice, with results being reproducible.

H1650 cells = assay: CellTiterGlo (CTG) cell viability, 3D, 120 h, H1650 (Example 8); type: cell-based, human; details: Homo sapiens, NCI-H1650, H1650 3D
DND-41 cells = assay: CellTiterGlo (CTG) cell viability, 72 h, DND-41 (Example 8); type: cell-based
Protocol: DND-41 cells were cultivated in RPMI supplemented with 10% heat inactivated fetal bovine serum, penicillin (100 IU/ml), streptomycin (100 μg/ml) and L-glutamine (2 mM). Cell lines were cultured at 37° C. in a humidified atmosphere containing 5% CO2. […] Effects of payloads or ADCs on cell viability were assessed after 3 days of incubation at 37° C./5% CO2 by quantification of cellular ATP levels using CellTiterGlo at 75 μL reagent/well. All the conditions were tested in triplicates. Luminescence was quantified on a multipurpose plate reader. IC50s were calculated using standard four-parametric curve fitting.

[1] = experiment n1, read-out: ALLSIL CTG 72 h IC50 nM n1
[2] = experiment n2, read-out: ALLSIL CTG 72 h IC50 nM n2
[3] = mean of n1 and n2, read-out: ALLSIL CTG 72 h IC50 nM Mean of n1 and n2
[4] = experiment n1, read-out: H1650 3D CTG IC50 n1
[5] = experiment n2, read-out: H1650 3D CTG IC50 n2
[6] = mean of n1 and n2, read-out: H1650 3D CTG IC50 Mean of n1 and n2
[7] = DND41, experiment n1, read-out: DND41 CTG 72 h IC50 nM n1
[8] = DND41, experiment n2, read-out: DND41 CTG 72 h IC50 nM n2
[9] = DND41, mean of n1 and n2, read-out: DND41 CTG 72 h IC50 nM Mean of n1 and n2

IC50 (H1650 cells; [4]) [nM] | IC50 (H1650 cells; [5]) [nM] | IC50 (H1650 cells; [6]) [nM] | Structure (SMILES) | IC50 (ALL-SIL cells; [1]) [nM] | IC50 (ALL-SIL cells; [2]) [nM] | IC50 (ALL-SIL cells; [3]) [nM] | IC50 (DND-41 cells; [7]) [nM] | IC50 (DND-41 cells; [8]) [nM] | IC50 (DND-41 cells; [9]) [nM] | ALLSIL CTG 72 h IC50 nM n1 (ALL-SIL cells; experiment n1)
0.51 | 1.28 | 0.9 | Cc1c(Nc2nc3ccccc3s2)nnc2c1CCCN2c1nc(C(=O)O)c(CCCOc2ccc(C#CCN(C)C)cc2F)s1 [P1, 2-[3-(1,3-Benzothiazol-2-ylamino)-4-methyl-6,7-dihydro-5H-pyrido[2,3-c]pyridazin-8-yl]-5-[3-[4-[3-(dimethylamino)prop-1-ynyl]-2-fluoro-phenoxy]propyl]thiazole-4-carboxylic acid] | 0.38 | 0.14 | 0.26 | 1.3 | 0.26 | 0.78 | 
0.7 | 1.8 | 1.25 | Cc1c(Nc2nc3ccccc3s2)nnc2c1CCCN2c1nc(C(=O)O)c(CCCOc2ccc(C#CC(C)N3CCN(C)CC3)cc2F)s1 (stereo not drawn) [P8, 2-[3-(1,3-Benzothiazol-2-ylamino)-4-methyl-6,7-dihydro-5H-pyrido[2,3-c]pyridazin-8-yl]-5-[3-[2-fluoro-4-[3-(4-methylpiperazin-1-yl)but-1-ynyl]phenoxy]propyl]thiazole-4-carboxylic acid] | 0.02 | 0.03 | 0.02 | 0.69 | 0.41 | 0.55 | 
0.7 | 1.4 | 1.05 | Cc1c(Nc2nc3ccccc3s2)nnc2c1CCCN2c1nc(C(=O)O)c(CCCOc2ccc(C#CCN3CCCC3)cc2F)s1 [P9, 2-[3-(1,3-Benzothiazol-2-ylamino)-4-methyl-6,7-dihydro-5H-pyrido[2,3-c]pyridazin-8-yl]-5-[3-[2-fluoro-4-(3-pyrrolidin-1-ylprop-1-ynyl)phenoxy]propyl]thiazole-4-carboxylic acid] | 3.31 | 1.1 | 2.21 | 21.8 | 19.3 | 20.6 | 
0.3 | 0.8 | 0.55 | Cc1c(Nc2nc3ccccc3s2)nnc2c1CCCN2c1nc(C(=O)O)c(CCCOc2ccc(C#CCN3CCN(C)CC3)cc2F)s1 [P10, 2-[3-(1,3-Benzothiazol-2-ylamino)-4-methyl-6,7-dihydro-5H-pyrido[2,3-c]pyridazin-8-yl]-5-[3-[2-fluoro-4-[3-(4-methylpiperazin-1-yl)prop-1-ynyl]phenoxy]propyl] thiazole-4-carboxylic acid] |  | 0.01 | 0.01 | 0.2 | 0.29 | 0.25 | <Cmin
1.8 | 3 | 2.4 | CCN(C)CC#Cc1ccc(OCCCc2sc(N3CCCc4c3nnc(Nc3nc5ccccc5s3)c4C)nc2C(=O)O)c(F)c1 [P13, 2-[3-(1,3-Benzothiazol-2-ylamino)-4-methyl-6,7-dihydro-5H-pyrido[2,3-c]pyridazin-8-yl]-5-[3-[4-[3-[ethyl(methyl)amino]prop-1-ynyl]-2-fluoro-phenoxy]propyl]thiazole-4-carboxylic acid] | 2.6 | 1.44 | 2.02 | 11.8 | 12.1 | 11.9 | 
3.15 | 5.3 | 4.23 | Cc1c(Nc2nc3ccccc3s2)nnc2c1CCCN2c1nc(C(=O)O)c(CCCOc2ccc(C#CCN3CCNCC3)cc2F)s1 [P17, 2-[3-(1,3-Benzothiazol-2-ylamino)-4-methyl-6,7-dihydro-5H-pyrido[2,3-c]pyridazin-8-yl]-5-[3-[2-fluoro-4-(3-piperazin-1-ylprop-1-ynyl)phenoxy]propyl]thiazole-4-carboxylic acid] | 0.13 | 0.26 | 0.2 | 0.4 | 0.7 | 0.55 | 
 |  |  | CNCC#Cc1ccc(OCCCc2sc(N(CCC(O)CO)c3cc(C)c(Nc4nc5ccccc5s4)nn3)nc2C(=O)O)c(F)c1 (stereo not drawn) [P44, 2-[[6-(1,3-Benzothiazol-2-ylamino)-5-methyl-pyridazin-3-yl]-(3,4-dihydroxybutyl)amino]-5-[3-[2-fluoro-4-[3-(methylamino)prop-1-ynyl]phenoxy]propyl]thiazole-4-carboxylic acid] | 4.64 | 3.14 | 3.89 | 36 | 33.6 | 34.8 | 
 |  |  | CNCC#Cc1ccc(OCCCc2sc(N(CCCO)c3cc(C)c(Nc4nc5ccccc5s4)nn3)nc2C(=O)O)c(F)c1 [P45, 2-[[6-(1,3-Benzothiazol-2-ylamino)-5-methyl-pyridazin-3-yl]-(3-hydroxypropyl)amino]-5-[3-[2-fluoro-4-[3-(methylamino)prop-1-ynyl]phenoxy]propyl]thiazole-4-carboxylic acid] | 3.11 | 4.01 | 3.56 | 17 | 16.8 | 16.9 | 
 |  |  | CNCC#Cc1ccc(OCCCc2sc(N(CCCC(O)CO)c3cc(C)c(Nc4nc5ccccc5s4)nn3)nc2C(=O)O)c(F)c1 (stereo not drawn) [P46, 2-[[6-(1,3-Benzothiazol-2-ylamino)-5-methyl-pyridazin-3-yl]-(4,5-dihydroxypentyl)amino]-5-[3-[2-fluoro-4-[3-(methylamino)prop-1-ynyl]phenoxy]propyl]thiazole-4-carboxylic acid] | 62.2 | 50 | 56.1 | 212 | 220 | 216 | 
5.07 | 5.57 | 5.32 | Cc1c(Nc2nc3ccccc3s2)nnc2c1CCCN2c1ccc(-c2cnn(CC34CC5(C)CC(C)(CC(CCCNCCCCO)(C5)C3)C4)c2C)c(C(=O)O)n1 [P72, 6-[3-(1,3-benzothiazol-2-ylamino)-4-methyl-6,7-dihydro-5H-pyrido[2,3-c]pyridazin-8-yl]-3-[1-[[3-[3-(4-hydroxybutylamino)propyl]-5,7-dimethyl-1-adamantyl]methyl]-5-methyl-pyrazol-4-yl]pyridine-2-carboxylic acid] |  |  |  |  |  |  | 
8.6 | 9.41 | 9.01 | Cc1c(Nc2nc3ccccc3s2)nnc2c1CCCN2c1ccc(-c2cnn(CC34CC5(C)CC(C)(C3)CC(OCCN3CCCC3)(C5)C4)c2C)c(CO)n1 [P73, [6-[3-(1,3-benzothiazol-2-ylamino)-4-methyl-6,7-dihydro-5H-pyrido[2,3-c]pyridazin-8-yl]-3-[1-[[3,5-dimethyl-7-(2-pyrrolidin-1-ylethoxy)-1-adamantyl]methyl]-5-methyl-pyrazol-4-yl]-2-pyridyl]methanol] |  |  |  |  |  |  | 
2 | 1.86 | 1.93 | Cc1c(Nc2nc3ccccc3s2)nnc2c1CCCN2c1ccc(-c2cnn(CC34CC5(C)CC(C)(C3)CC(OCCN3CCCC3)(C5)C4)c2C)c(C(=O)N2CCCC2)n1 [P74, [6-[3-(1,3-benzothiazol-2-ylamino)-4-methyl-6,7-dihydro-5H-pyrido[2,3-c]pyridazin-8-yl]-3-[1-[[3,5-dimethyl-7-(2-pyrrolidin-1-ylethoxy)-1-adamantyl]methyl]-5-methyl-pyrazol-4-yl]-2-pyridyl]-pyrrolidin-1-yl-methanone] |  |  |  |  |  |  | 
2.3 | 3.03 | 2.67 | Cc1c(Nc2nc3ccccc3s2)nnc2c1CCCN2c1ccc(-c2cnn(CC34CC5(C)CC(C)(C3)CC(OCCN3CCCC3)(C5)C4)c2C)c(C(=O)NC(C)C)n1 [P75, 6-[3-(1,3-benzothiazol-2-ylamino)-4-methyl-6,7-dihydro-5H-pyrido[2,3-c]pyridazin-8-yl]-3-[1-[[3,5-dimethyl-7-(2-pyrrolidin-1-ylethoxy)-1-adamantyl]methyl]-5-methyl-pyrazol-4-yl]-N-isopropyl-pyridine-2-carboxamide] |  |  |  |  |  |  | 
2 | 3.87 | 2.94 | Cc1c(Nc2nc3ccccc3s2)nnc2c1CCCN2c1ccc(-c2cnn(CC34CC5(C)CC(C)(C3)CC(OCCN3CCCC3)(C5)C4)c2C)c(C(N)=O)n1 [P76, 6-[3-(1,3-benzothiazol-2-ylamino)-4-methyl-6,7-dihydro-5H-pyrido[2,3-c]pyridazin-8-yl]-3-[1-[[3,5-dimethyl-7-(2-pyrrolidin-1-ylethoxy)-1-adamantyl]methyl]-5-methyl-pyrazol-4-yl]pyridine-2-carboxamide] |  |  |  |  |  |  | 
